The values that follow are results of earlier work, collected in patent publication US6956029B1, “Solid formulation of glucosamine sulphate” (SCA Lohnherstellungs AG, priority 1999, dated 2005).

For data set [1] the following is noted: first acid dissociation constant.
For data set [2] the following is noted: over 30 days at 75% rH/20° C.

In the case of `O=C(O)CC(O)(CC(=O)O)C(=O)O` [citric acid], the pKa1 in data set [1] is 3.1.

Turning to `O=C1O[C@H]([C@@H](O)CO)C(O)=C1O` [ascorbic acid], the pKa1 in data set [1] is reported as 4.1.

Consider `N[C@H]1C(O)O[C@H](CO)[C@@H](O)[C@@H]1O.O=S(=O)([O-])O.[Cl-].[K+].[K+]` (stereo partly drawn) [mixed salt with potassium chloride, D-glucosamine sulphate di-potassium chloride], for which the stability on storage result in data set [2] is listed as “essentially stable”.
